In ChEMBL document CHEMBL6182900, “Discovery of potent focal adhesion kinase (FAK) inhibitor A8 with enhanced antitumor activity” (Eur J Med Chem, 2025):

Assays:
Focal adhesion kinase 1 = Focal adhesion kinase 1 (Homo sapiens, UniProt Q05397); assay: Inhibition of FAK (unknown origin) by HTRF assay
Cytochrome P450 2C9 = Cytochrome P450 2C9 (Homo sapiens, UniProt P11712); assay: Inhibition of CYP2C9 in human liver microsomes in presence of NADPH by LC-MS/MS analysis; type: ADME, Microsome
Cytochrome P450 1A2 = biological target: T1, Cytochrome P450 1A2 (Homo sapiens, UniProt P05177); assay: Inhibition of CYP1A2 in human liver microsomes in presence of NADPH by LC-MS/MS analysis; type: ADME, Microsome
T1 sequence (P05177 whole entry): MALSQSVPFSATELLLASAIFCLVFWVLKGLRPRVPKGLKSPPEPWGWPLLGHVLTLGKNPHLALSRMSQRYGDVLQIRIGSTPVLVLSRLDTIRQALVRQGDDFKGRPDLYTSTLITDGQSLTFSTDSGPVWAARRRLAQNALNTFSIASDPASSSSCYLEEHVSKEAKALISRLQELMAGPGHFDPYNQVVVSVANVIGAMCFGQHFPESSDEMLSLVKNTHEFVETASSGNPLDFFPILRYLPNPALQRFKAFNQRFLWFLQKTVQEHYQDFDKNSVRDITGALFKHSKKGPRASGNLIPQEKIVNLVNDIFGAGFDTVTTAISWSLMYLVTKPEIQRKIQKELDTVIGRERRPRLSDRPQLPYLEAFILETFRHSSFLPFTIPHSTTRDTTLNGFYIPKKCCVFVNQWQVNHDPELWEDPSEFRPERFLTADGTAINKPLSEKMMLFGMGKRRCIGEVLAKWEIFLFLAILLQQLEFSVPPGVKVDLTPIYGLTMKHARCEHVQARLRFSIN

Cytochrome P450 2C19 = Cytochrome P450 2C19 (Homo sapiens, UniProt P33261); assay: Inhibition of CYP2C19 in human liver microsomes in presence of NADPH by LC-MS/MS analysis; type: ADME, Microsome
Sequence of Cytochrome P450 2C19 (P33261 whole entry): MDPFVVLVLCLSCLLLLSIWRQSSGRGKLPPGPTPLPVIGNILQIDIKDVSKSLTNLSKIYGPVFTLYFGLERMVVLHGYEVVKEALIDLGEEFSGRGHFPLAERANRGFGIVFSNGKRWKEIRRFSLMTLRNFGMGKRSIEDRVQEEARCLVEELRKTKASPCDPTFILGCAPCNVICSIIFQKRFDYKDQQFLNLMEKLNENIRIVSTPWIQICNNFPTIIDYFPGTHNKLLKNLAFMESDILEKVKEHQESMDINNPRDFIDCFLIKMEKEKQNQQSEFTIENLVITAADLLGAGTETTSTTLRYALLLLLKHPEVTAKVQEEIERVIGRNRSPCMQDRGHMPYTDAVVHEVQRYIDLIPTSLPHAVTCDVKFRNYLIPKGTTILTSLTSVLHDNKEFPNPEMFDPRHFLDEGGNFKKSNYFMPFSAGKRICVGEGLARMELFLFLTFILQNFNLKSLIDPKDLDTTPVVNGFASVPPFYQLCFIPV

Cytochrome P450 2D6 = Cytochrome P450 2D6 (Homo sapiens, UniProt P10635); assay: Inhibition of CYP2D6 in human liver microsomes in presence of NADPH by LC-MS/MS analysis; type: ADME, Microsome
Sequence of Cytochrome P450 2D6 (P10635 whole entry): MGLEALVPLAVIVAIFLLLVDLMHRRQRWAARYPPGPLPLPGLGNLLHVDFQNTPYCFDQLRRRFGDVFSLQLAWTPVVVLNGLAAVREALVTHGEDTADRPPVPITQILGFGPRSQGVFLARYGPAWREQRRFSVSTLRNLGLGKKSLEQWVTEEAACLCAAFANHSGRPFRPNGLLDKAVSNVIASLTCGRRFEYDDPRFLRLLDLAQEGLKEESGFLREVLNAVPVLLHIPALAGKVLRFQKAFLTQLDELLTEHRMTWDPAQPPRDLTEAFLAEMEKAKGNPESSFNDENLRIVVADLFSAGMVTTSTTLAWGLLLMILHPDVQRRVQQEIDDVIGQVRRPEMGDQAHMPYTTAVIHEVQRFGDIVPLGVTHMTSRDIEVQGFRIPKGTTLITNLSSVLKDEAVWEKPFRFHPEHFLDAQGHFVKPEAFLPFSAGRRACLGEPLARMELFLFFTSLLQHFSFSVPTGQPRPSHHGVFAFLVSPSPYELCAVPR

Cytochrome P450 3A4 = Cytochrome P450 3A4 (Homo sapiens, UniProt P08684); assay: Inhibition of CYP3A4 in human liver microsomes in presence of NADPH by LC-MS/MS analysis; type: ADME, Microsome
Sequence of Cytochrome P450 3A4 (P08684 whole entry): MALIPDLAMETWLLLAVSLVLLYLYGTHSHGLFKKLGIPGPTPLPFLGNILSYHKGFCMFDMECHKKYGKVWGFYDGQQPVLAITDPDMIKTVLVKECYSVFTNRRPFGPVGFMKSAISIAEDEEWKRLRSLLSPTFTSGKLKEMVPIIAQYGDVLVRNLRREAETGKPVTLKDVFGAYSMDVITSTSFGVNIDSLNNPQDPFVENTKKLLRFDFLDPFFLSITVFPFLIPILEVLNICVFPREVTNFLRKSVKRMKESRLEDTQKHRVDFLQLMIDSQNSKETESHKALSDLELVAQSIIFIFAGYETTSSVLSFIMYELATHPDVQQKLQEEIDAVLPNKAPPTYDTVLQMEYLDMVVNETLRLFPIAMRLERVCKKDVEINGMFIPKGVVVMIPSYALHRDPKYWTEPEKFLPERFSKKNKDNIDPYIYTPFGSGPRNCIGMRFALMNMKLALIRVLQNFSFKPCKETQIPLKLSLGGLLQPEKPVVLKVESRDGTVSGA

A549 = assay: Antitumor activity against human A549 cells xenografted in mouse model assessed as tumor growth inhibition at 50 mg/kg, po administered for 5 days and measured after 2 days relative to control; conditions: 168 h, read-out: TGI
SK-OV-3 [1] = assay: Antitumor activity against human SK-OV-3 cells xenografted in mouse model assessed as tumor growth inhibition at 25 mg/kg administered twice daily for 5 days and measured after 2 days break relative to control; type: functional; conditions: SK-OV-3, 168 h, time 7 day, read-out: TGI
SK-OV-3 [2] = assay: Antitumor activity against human SK-OV-3 cells xenografted in mouse model assessed as tumor growth inhibition at 25 mg/kg co-administered with paclitaxel as twice daily dose for 5 days and measured after 2 days break relative to control; conditions: SK-OV-3, 168 h, read-out: TGI
in vitro = conditions: human, liver microsomes
Description: Metabolic stability in human liver microsomes assessed as intrinsic clearance preincubated for 5 mins followed by NADPH addition and measured after 60 mins by LC-MS/MS analysis

SK-OV-3 [3] = assay: Antitumor activity against human SK-OV-3 cells xenografted in mouse model assessed as tumor growth inhibition at 4 mg/kg, ip administered as weekly dose relative to control; type: functional; conditions: read-out: TGI

Sequence of Cytochrome P450 2C9 (P11712 whole entry): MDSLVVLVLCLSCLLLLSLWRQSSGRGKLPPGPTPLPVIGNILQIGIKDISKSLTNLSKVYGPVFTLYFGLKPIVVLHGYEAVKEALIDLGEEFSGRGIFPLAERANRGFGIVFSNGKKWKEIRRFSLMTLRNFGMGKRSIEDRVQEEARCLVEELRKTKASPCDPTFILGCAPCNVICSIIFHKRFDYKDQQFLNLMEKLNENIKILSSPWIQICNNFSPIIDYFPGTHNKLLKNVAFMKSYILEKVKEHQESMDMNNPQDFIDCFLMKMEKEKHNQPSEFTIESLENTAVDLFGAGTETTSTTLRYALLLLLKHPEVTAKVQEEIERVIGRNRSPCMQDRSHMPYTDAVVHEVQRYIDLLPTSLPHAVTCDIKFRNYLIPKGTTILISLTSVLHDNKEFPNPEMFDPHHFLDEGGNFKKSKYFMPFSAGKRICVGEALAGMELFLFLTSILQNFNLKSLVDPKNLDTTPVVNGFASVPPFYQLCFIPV
Sequence of Focal adhesion kinase 1 (Q05397 whole entry): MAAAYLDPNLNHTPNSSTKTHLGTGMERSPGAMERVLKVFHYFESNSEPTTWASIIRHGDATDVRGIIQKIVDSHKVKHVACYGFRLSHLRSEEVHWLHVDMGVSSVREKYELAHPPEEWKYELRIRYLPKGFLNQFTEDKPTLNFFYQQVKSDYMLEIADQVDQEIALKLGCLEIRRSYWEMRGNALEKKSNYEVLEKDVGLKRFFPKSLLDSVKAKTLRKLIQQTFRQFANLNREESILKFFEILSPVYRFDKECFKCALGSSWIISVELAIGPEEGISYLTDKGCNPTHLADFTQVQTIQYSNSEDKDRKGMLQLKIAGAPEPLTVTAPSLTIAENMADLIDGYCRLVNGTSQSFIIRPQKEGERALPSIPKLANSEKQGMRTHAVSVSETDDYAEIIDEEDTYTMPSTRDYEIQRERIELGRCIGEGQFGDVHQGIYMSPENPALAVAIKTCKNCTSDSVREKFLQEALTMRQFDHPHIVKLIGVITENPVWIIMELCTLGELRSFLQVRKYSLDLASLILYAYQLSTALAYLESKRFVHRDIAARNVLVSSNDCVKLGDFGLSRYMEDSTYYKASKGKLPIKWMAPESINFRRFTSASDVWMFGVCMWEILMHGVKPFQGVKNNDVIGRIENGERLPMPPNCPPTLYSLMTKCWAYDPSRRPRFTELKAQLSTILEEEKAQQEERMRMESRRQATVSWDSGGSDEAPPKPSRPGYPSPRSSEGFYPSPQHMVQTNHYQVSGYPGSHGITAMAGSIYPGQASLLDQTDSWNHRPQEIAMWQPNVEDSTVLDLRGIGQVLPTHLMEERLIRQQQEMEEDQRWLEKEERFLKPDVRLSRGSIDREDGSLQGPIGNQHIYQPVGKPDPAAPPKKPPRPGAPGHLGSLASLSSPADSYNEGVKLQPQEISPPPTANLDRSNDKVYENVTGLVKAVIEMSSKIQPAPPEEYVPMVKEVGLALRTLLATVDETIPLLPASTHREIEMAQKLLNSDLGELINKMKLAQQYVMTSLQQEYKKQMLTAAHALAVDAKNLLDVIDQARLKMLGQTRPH

SMILES: CC(=O)Nc1ccc(Nc2nc(Nc3ccc(NC(=O)CCNC(=O)c4ccc(F)nc4)cc3)ncc2Br)c(NC(C)=O)c1
- IC50 (Focal adhesion kinase 1): 0.0113 µM

SMILES: CNC(=O)c1ccccc1Nc1nc(Nc2ccc(OCCF)cc2)ncc1Br
- IC50 (Cytochrome P450 2C9): 22.5 µM
- IC50 (Cytochrome P450 1A2): 26.6 µM
- IC50 (Cytochrome P450 2C19): 36.2 µM
- IC50 (Cytochrome P450 2D6): > 50 µM
- IC50 (Cytochrome P450 3A4): > 50 µM

SMILES: CNC(=O)c1ccc(Nc2ncc(C(F)(F)F)c(NCc3nccnc3N(C)S(C)(=O)=O)n2)cc1 [DEFACTINIB]
- inhibition in vivo at 50 mg/kg (A549): 40.7%
- inhibition in vivo at 25 mg/kg (SK-OV-3 [1]): 53.9%
- inhibition in vivo at 25 mg/kg (SK-OV-3 [2]): 74.7%

SMILES: O=C(O)Cc1ccccc1Nc1c(Cl)cccc1Cl [DICLOFENAC]
- microsomal CLint at 1 h (in vitro): 232 µL/min/mg

SMILES: C#Cc1cccc(Nc2ncnc3cc(OCCOC)c(OCCOC)cc23)c1 [ERLOTINIB]
- inhibition in vivo at 50 mg/kg (A549): 47.4%

SMILES: CC(=O)O[C@H]1C(=O)[C@@]2(C)[C@H]([C@H](OC(=O)c3ccccc3)[C@]3(O)C[C@H](OC(=O)[C@H](O)[C@@H](NC(=O)c4ccccc4)c4ccccc4)C(C)=C1C3(C)C)[C@]1(OC(C)=O)CO[C@@H]1C[C@@H]2O [PACLITAXEL]
- inhibition in vivo at 4 mg/kg (SK-OV-3 [3]): 55.3%
